Data published in patent US20180016593A1, “HERBICIDE-RESISTANT SUNFLOWER PLANTS, POLYNUCLEOTIDES ENCODING HERBICIDE-RESISTANT ACETOHYDROXYACID SYNTHASE LARGE SUBUNIT PROTEINS, AND METHODS OF USE” (priority 2005, published 2018).
Several values for one entry are separate records, joined by “and”; a condition that tells them apart may be missing. Equal entries are not always repeated. Where two headings read alike, the source gives them in different places.

System: sunflower lines carrying the A122T mutation
Format: in vivo, Helianthus annuus
Details: 14 DAT; for biomass accumulation, Dif A122T-A205V / plant height, Dif A122T-A205V / root dry weight, Dif with A122T-A205V: A122T mean minus A205V mean; for biomass accumulation, Dif with Control / plant height, Dif with Control / root dry weight, Dif with Control: A122T mean; for Phytotoxicity Index, Dif A205V-A122T: A205V mean minus A122T mean; for biomass accumulation, Mean / plant height, Mean / root dry weight, Mean: six A122T genotypes
Method: A greenhouse study was conducted to quantify and contrast the imazapir sensivity of the mutants A122T and A205V in different genetic backgrounds at the whole plant level in sunflower. Seeds of the different sunflower lines that were used in this study were obtained under field conditions.
Seeds were sown in Petri dishes and, after germination, plantlets were transplanted to pots of 10 cm of diameter in a potting media consisting of equal parts of vermiculite, soil and sand. Plants were grown in a greenhouse under natural light conditions supplemented with 400 W sodium halide lamps to provide a 16 hrs daylength. Day/night temperatures were 25 and 20° C., respectively. At the V2 stage 10 plants of each genotype were randomly assigned to each treatment consisting of […] imazapir doses (0, 40, 80, 160, 240, 320, 400 and 480 g ai/ha), and a zero-time biomass determination. Experiment was arranged as a randomized block design with a full factorial (sunflower line×treatment) arrangement of treatments and 10 replications.
On the day of herbicide application ten plants of each genotype were cut at the cotyledonal node and dried at 60° C. for 48 hrs zero-time for dried weight determination.
Height was determined as the distance between the cotyledonal node and the apex of each plant. For root biomass determination, each plant was taken from the pot and the potting media was washed out from the roots. Above ground biomass data from each line were converted to biomass accumulation after application by subtracting the appropriate average zero-time biomass from each sample. Dry biomass data were converted to percentages of the untreated control plants within each line to allow direct comparisons between groups. […]

CC(C)C1(C)N=C(c2ncccc2C(=O)O)NC1=O (stereo not shown) [imazapyr]
biomass accumulation, Dif A122T-A205V (0.5x (40 g ai/ha)): 4.3 % of untreated plots | plant height, Dif A122T-A205V (0.5x (40 g ai/ha)): 4.9 % of untreated plots | root dry weight, Dif with A122T-A205V (0.5x (40 g ai/ha)): 12.7 % of untreated plots | biomass accumulation, Dif A122T-A205V (1x (80 g ai/ha)): 14.5 % of untreated plots | plant height, Dif A122T-A205V (1x (80 g ai/ha)): 9.4 % of untreated plots | root dry weight, Dif with A122T-A205V (1x (80 g ai/ha)): 26.7 % of untreated plots | biomass accumulation, Dif A122T-A205V (2x (160 g ai/ha)): 33.2 % of untreated plots | plant height, Dif A122T-A205V (2x (160 g ai/ha)): 28.0 % of untreated plots | root dry weight, Dif with A122T-A205V (2x (160 g ai/ha)): 43.6 % of untreated plots | biomass accumulation, Dif A122T-A205V (3x (240 g ai/ha)): 45.3 % of untreated plots | plant height, Dif A122T-A205V (3x (240 g ai/ha)): 45.3 % of untreated plots | root dry weight, Dif with A122T-A205V (3x (240 g ai/ha)): 50.2 % of untreated plots | biomass accumulation, Dif A122T-A205V (4x (320 g ai/ha)): 52.4 % of untreated plots | plant height, Dif A122T-A205V (4x (320 g ai/ha)): 59.9 % of untreated plots | root dry weight, Dif with A122T-A205V (4x (320 g ai/ha)): 50.3 % of untreated plots | biomass accumulation, Dif A122T-A205V (5x (400 g ai/ha)): 46.9 % of untreated plots | plant height, Dif A122T-A205V (5x (400 g ai/ha)): 57.8 % of untreated plots | root dry weight, Dif with A122T-A205V (5x (400 g ai/ha)): 47.9 % of untreated plots | biomass accumulation, Dif A122T-A205V (6x (480 g ai/ha)): 44.6 % of untreated plots | plant height, Dif A122T-A205V (6x (480 g ai/ha)): 54.0 % of untreated plots | root dry weight, Dif with A122T-A205V (6x (480 g ai/ha)): 37.3 % of untreated plots | biomass accumulation, Dif with Control (0.5x (40 g ai/ha)): 1.1 % of untreated plots | plant height, Dif with Control (0.5x (40 g ai/ha)): 0.6 % of untreated plots | root dry weight, Dif with Control (0.5x (40 g ai/ha)): 0.1 % of untreated plots | biomass accumulation, Dif with Control (1x (80 g ai/ha)): 3.2 % of untreated plots | plant height, Dif with Control (1x (80 g ai/ha)): 1.4 % of untreated plots | root dry weight, Dif with Control (1x (80 g ai/ha)): 2.5 % of untreated plots | biomass accumulation, Dif with Control (2x (160 g ai/ha)): 5.1 % of untreated plots | plant height, Dif with Control (2x (160 g ai/ha)): 2.7 % of untreated plots | root dry weight, Dif with Control (2x (160 g ai/ha)): 5.9 % of untreated plots | biomass accumulation, Dif with Control (3x (240 g ai/ha)): 7.2 % of untreated plots | plant height, Dif with Control (3x (240 g ai/ha)): 4.4 % of untreated plots | root dry weight, Dif with Control (3x (240 g ai/ha)): 10.6 % of untreated plots | biomass accumulation, Dif with Control (4x (320 g ai/ha)): 12.2 % of untreated plots | plant height, Dif with Control (4x (320 g ai/ha)): 6.3 % of untreated plots | root dry weight, Dif with Control (4x (320 g ai/ha)): 18.6 % of untreated plots | biomass accumulation, Dif with Control (5x (400 g ai/ha)): 20.7 % of untreated plots | plant height, Dif with Control (5x (400 g ai/ha)): 10.2 % of untreated plots | root dry weight, Dif with Control (5x (400 g ai/ha)): 21.3 % of untreated plots | plant height, Dif with Control (6x (480 g ai/ha)): 15.8 % of untreated plots | root dry weight, Dif with Control (6x (480 g ai/ha)): 38.3 % of untreated plots | biomass accumulation, Dif with Control (6x (480 g ai/ha), listed as imazapir): 25 % of untreated plots and 25.4 % of untreated plots | Phytotoxicity Index, Dif A205V-A122T (0.5x (40 g ai/ha)): −0.29 | Phytotoxicity Index, Dif A205V-A122T (1x (80 g ai/ha)): −0.29 | Phytotoxicity Index, Dif A205V-A122T (2x (160 g ai/ha)): 1.87 | Phytotoxicity Index, Dif A205V-A122T (3x (240 g ai/ha)): 4.81 | Phytotoxicity Index, Dif A205V-A122T (4x (320 g ai/ha)): 6.92 | Phytotoxicity Index, Dif A205V-A122T (5x (400 g ai/ha)): 7.38 | Phytotoxicity Index, Dif A205V-A122T (6x (480 g ai/ha)): 7.03 | biomass accumulation, Mean (0.5x (40 g ai/ha)): 98.9 % of untreated plots | plant height, Mean (0.5x (40 g ai/ha)): 99.4 % of untreated plots | root dry weight, Mean (0.5x (40 g ai/ha)): 99.9 % of untreated plots | biomass accumulation, Mean (1x (80 g ai/ha)): 96.8 % of untreated plots | plant height, Mean (1x (80 g ai/ha)): 98.6 % of untreated plots | root dry weight, Mean (1x (80 g ai/ha)): 97.5 % of untreated plots | biomass accumulation, Mean (2x (160 g ai/ha)): 94.9 % of untreated plots | plant height, Mean (2x (160 g ai/ha)): 97.3 % of untreated plots | root dry weight, Mean (2x (160 g ai/ha)): 94.1 % of untreated plots | biomass accumulation, Mean (3x (240 g ai/ha)): 92.8 % of untreated plots | plant height, Mean (3x (240 g ai/ha)): 95.6 % of untreated plots | root dry weight, Mean (3x (240 g ai/ha)): 89.4 % of untreated plots
